Data: the supplement of paper PMC10307832

Columns and labels:
Test in all cases: relative viability (nuclei count vs DMSO), 5 days (fraction); higher = more cells survive
[1] = compound: CCn1c(-c2nonc2N)nc2c(C#CC(C)(C)O)ncc(OC[C@H]3CCCNC3)c21 + CC(=O)c1c(C)c2cnc(Nc3ccc(N4CCNCC4)cn3)nc2n(C2CCCC2)c1=O [Palbociclib] (partner 0.5 µM)
In short: (§1)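 Relative viability is defined as nuclei in treated wells over nuclei in vehicle wells. Duplicate plates were run and medians reported. Lung cancer cell lines in 1536-well plates were dosed by pin tool one day after seeding, with one drug or with a fixed anchor-drug dose plus five library-drug doses (not always all listed) in √10 steps, and nuclei were counted after 5 days.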

[2] = compound: CCn1c(-c2nonc2N)nc2c(C#CC(C)(C)O)ncc(OC[C@H]3CCCNC3)c21 + Cc1nc(Nc2ncc(C(=O)Nc3c(C)cccc3Cl)s2)cc(N2CCN(CCO)CC2)n1 [Dasatinib] (partner 0.075 µM)
In short: as §1

[3] = compound: CCOC1=CC=CC=C1N=NC2=C(NN(C2=O)C3=NC(=CS3)C4=CC=CC=C4)C [BAM7] + CC(C)C[C@H](NC(=O)[C@H](Cc1ccccc1)NC(=O)c1cnccn1)B(O)O [Bortezomib] (partner 0.002 µM)
In short: as §1

[4] = compound: CCOC1=CC=CC=C1N=NC2=C(NN(C2=O)C3=NC(=CS3)C4=CC=CC=C4)C [BAM7] + C[C@]1(O)C[C@@H](c2nc(-c3ccc4ccc(-c5ccccc5)nc4c3)c3c(N)nccn32)C1 [Linsitinib] (partner 1 µM)
In short: as §1

Cell Line	relative viability ([1]; first compound 0.01 µM)	relative viability ([1]; first compound 0.03162 µM)	relative viability ([1]; first compound 0.1 µM)	relative viability ([1]; first compound 0.3162 µM)	relative viability ([1]; first compound 1 µM)	relative viability ([2]; first compound 0.01 µM)	relative viability ([2]; first compound 0.03162 µM)	relative viability ([2]; first compound 0.1 µM)	relative viability ([2]; first compound 0.3162 µM)	relative viability ([2]; first compound 1 µM)	relative viability ([3]; first compound 0.5 µM)	relative viability ([3]; first compound 5 µM)	relative viability ([3]; first compound 15.81 µM)	relative viability ([3]; first compound 50 µM)	relative viability ([4]; first compound 0.5 µM)	relative viability ([4]; first compound 5 µM)	relative viability ([4]; first compound 15.81 µM)	relative viability ([4]; first compound 50 µM)
NCI-H1993	0.55	0.642	0.628	0.659	0.542	0.759	0.531	0.603	0.473	0.527	0.843	0.836	0.472	1.09	0.688	0.724	0.701	0.742
NCI-H2009	0.202	0.223	0.229	0.186	0.241	0.257	0.33	0.287	0.254	0.283	0.976	1.29	0.926	0.971	1.27	1.2	1.15	1.16
NCI-H2023	0.357	0.379	0.331	0.205	0.262	0.454	0.572	0.492	0.388	0.344	0.988	0.905	0.92	1.08	0.657	0.689	0.64	0.67
NCI-H2085	0.49	0.426	0.481	0.455	0.48	0.21	0.272	0.278	0.255	0.228	1.07	1.12	0.979	1.16	0.968	1.03	0.821	0.911
NCI-H2087	0.214	–	0.225	0.248	0.293	0.738	0.751	0.936	0.795	0.913	0.892	0.85	0.843	0.767	0.974	1.27	0.893	0.903
NCI-H2126	0.325	0.319	0.365	0.335	0.377	0.587	0.468	0.597	0.579	0.677	1.07	1	1.08	1.08	0.7	0.63	0.706	0.704
NCI-H2228	0.686	0.752	0.821	0.574	0.467	0.451	0.526	0.583	0.482	0.353	1.31	1.31	0.798	1.21	0.674	0.789	0.554	0.842
NCI-H2347	0.394	0.445	0.492	0.422	0.435	0.317	0.264	–	0.274	0.334	1	1.27	1.32	1.2	0.983	1.18	0.971	0.982
NCI-H2405	0.52	0.539	0.472	0.481	0.511	0.199	0.216	0.216	0.214	0.213	1.02	1.04	1.01	0.991	1.02	0.881	0.865	1.09
